# Measurements: article PMC3873925, “Peptide-Mediated Liposomal Doxorubicin Enhances Drug Delivery Efficiency and Therapeutic Efficacy in Animal Models” (PLoS ONE, 2013)
# Key:
# [1] = tested on: H460 cells; assay: Peptide-binding assay (cellular ELISA); format: cell-based, human
# Experimental: (§1) H460 cells were seeded in 96-well ELISA plates at 1×10^4 per well. After 24-hour incubation, cells were fixed with 3.7% paraformaldehyde for 10 min at 4°C and then blocked with 1% BSA in PBS for 1 hour at room temperature. Serial diluted biotinylated peptides were incubated with cells for 1 hour at room temperature. After twice washing with PBS, cells were incubated with HRP-conjugated streptavidin (1∶5000 dilution) for 1 hour and then washed with PBS supplemented with 0.1% tween-20 for four times. Binding activity was assessed by cellular ELISA with optical density at 490 nm. For competition assay, cells were firstly incubated with unlabeled peptides at room temperature for 1 hour before incubated with 10 µg/ml biotinylated SP5-2 peptides.
# [2] = tested on: LL/2-derived tumors; assay: Syngenic animal model; format: in vivo, C57BL/6 mice; details: five injections
# Experimental: C57BL/6 mice (6-week-old, NLAC) were injected s.c. in the dorsolateral flank with 2×10^6 LL/2 cells in 100 µL serum-free media. […] The dosage of SP-5-2-LD was 1 or 2 mg/kg, injected twice a week for four weeks. Mouse body weight and tumor size were measured twice a week. Tumor volumes were calculated using the equation: length × (width)^2 ×0.52 and presented as standard error of the mean. This study used humane endpoint by determining the tumor size (>10% of body weight) or mouse weight loss (>20% of body weight). Mice were observed twice a week and given soft diet. Animal care was carried out in accordance with the guidelines of Academia Sinica, Taiwan.
# [3] = tested on: LL/2 cells; assay: Lung metastasis animal model; format: in vivo; details: 2 mg/kg i.v. twice a week, eight injections (16 mg/kg total)
# Experimental: LL/2 cells were washed twice by centrifugation in media without serum at room temperature, and re-suspended in media at 4°C prior to injection. Cell viability was determined by trypan blue exclusion, and only cell suspensions with greater than 95% viability and without cell clumping were used. Cells (1×10^5 cells/mouse) were inoculated via the lateral tail vein of 6-week-old female C57BL/6 mice. Mice were then treated with different formulations of anti-cancer drugs. The dosage was 1 or 2 mg/kg twice a week for four weeks. Mouse body weight and survival rate were measured twice a week. The endpoint was determined by the mouse weight loss (>20% of body weight) or mouse activity assessment (hunching, stationary, ruffling and poor grooming). Mice were observed every day and given soft diet. Animal care was carried out in accordance with the guidelines of Academia Sinica, Taiwan.
# [4] = tested on: H460 cells; assay: Orthotopic lung adenocarcinoma model; format: in vivo, SCID mice; details: 1 mg/kg i.v. twice a week, eight injections, started five days after orthotopic injection
# Experimental: SCID mice (4-week-old) were anesthetized with isoflourane mixed with oxygen and placed in the right lateral decubitus position. The skin overlying the left chest wall in the mid-axillary line was treated with alcohol, and the underlying chest wall and intercostal spaces were visualized. H460 cells (5×10^5; single-cell suspensions of over 90% viability as determined by trypan blue exclusion) in 50 µL serum-free media plus Matrigel Matrix (BD Biosciences) (1∶1) were injected into the left lateral thorax, at the lateral dorsal axillary line. After tumor injection, the mice were turned to the left lateral decubitus position and observed for 45 to 60 minutes until fully recovered. Mice were then treated with different formulations of anti-cancer drugs. The dosage was 1 mg/kg twice a week for four weeks. Mouse body weight and survival rate were measured twice a week. The endpoint was determined by the mouse weight loss (>20% of body weight) or mouse activity assessment (hunching, stationary, ruffling and poor grooming). Mice were observed every day and given soft diet. Animal care was carried out in accordance with the guidelines of Academia Sinica, Taiwan.
# [5] = Pharmacokinetic and biodistribution studies in H460 xenograft-bearing mice; format: in vivo, NOD/SCID mice; details: 2 mg/kg i.v.
# Experimental: Human cancer xenografts were established in NOD/SCID mice (NLAC). H460 cells (5×10^6) were injected subcutaneously (s.c.) into the dorsolateral flanks of 4-week-old mice. […] At selected time points, three mice in each group were anaesthetized and sacrificed with 50% CO2 containing 50% O2. Blood samples were collected through submaxillary punctures, and plasma samples were prepared. After perfusion, xenograft tumors and mouse organs were removed and homogenized. Tumor cell nuclei were isolated and nuclear doxorubicin was extracted as described previously, [32]. The total doxorubicin concentration was measured as described by Mayer et al.. Total doxorubicin was quantified using spectrofluorometry at λex 485/20 nm and λem 645/40 nm (Synergy HT Multi-Detection Microplate Reader, BioTek Instruments, Winooski, VT).
# Tissue concentrations of doxorubicin were expressed as microequivalents per milliliter of plasma or per gram of tissue. A standard doxorubicin curve was prepared in control homogenates by following the above extraction procedure. Drug levels were estimated on the basis of doxorubicin fluorescent equivalents.
# [6] = tested on: H460 cells; assay: Peptide competition assay (cellular ELISA); format: cell-based, human; details: B-SP5-2 10 µg/ml, unlabeled peptide 22 to 600 µg/ml
# Experimental: as §1
compound,measurement,setting,value
"TDSILRSYDGGG [MP5-2, mutant peptide, WTY motif changed to GGG]",binding activity,"[1]; H460 and LL/2 cells, WTY motif changed to GGG",remarkable loss of binding activity
"COc1cccc2c1C(=O)c1c(O)c3c(c(O)c1C2=O)C[C@@](O)(C(=O)CO)C[C@@H]3O[C@H]1C[C@H](N)[C@H](O)[C@H](C)O1 [FD, doxorubicin]","tumor size, fold larger than in equivalent SP5-2-LD-treated mice",[2]; 1 mg/kg i.v. twice a week,1.55 fold
same,"tumor size, fold larger than in equivalent SP5-2-LD-treated mice",[2]; 2 mg/kg i.v. twice a week,2.38 fold
same,median overall survival,[3],21 days
same,mean life spans,[4],25 days
same,AUC0-72 h Blood,[5],5.9 µg·h/g
same,AUC0-72 h Heart,[5],26.3 µg·h/g
same,AUC0-72 h Kidney,[5],87.2 µg·h/g
same,AUC0-72 h Liver,[5],293.6 µg·h/g
same,AUC0-72 h Lung,[5],421.2 µg·h/g
same,AUC0-72 h Nuclei,[5]; doxorubicin bound to tumor cell nuclei,5.5 µg·h/g
same,AUC0-72 h Tumor,[5]; doxorubicin in tumor tissue,8.5 µg·h/g
TDSILRSYDWTY [SP5-2],minimum binding activity started at,"[1]; H460 cells, biotinylated peptide",1 µg/mL
same,inhibition of Biotin-labeled SP5-2 binding to H460 cells by unlabeled peptide,[6],competitively inhibited
